The text below walks through data of patent US20190264229A1, “DEVICE, SYSTEM AND METHOD FOR INTRACELLULAR DELIVERY OF SUBSTANCES” (Agency for Science, Technology and Research, priority 2016, published 2019).

For this assay, the system named is HEK293T cells. The assay can be described thus: Pipette tip filter loading of fluorescein-labeled cargo into HEK293T cells, flow cytometry. Type of assay: cell-based. The following applies: pipetted through the filter vs not passed through the filter, 0.4 million HEK293T, 12 hours recovery. The protocol: To establish if other cargoes can be loaded with this method, 0.4 million HEK293T cells were mixed with 50 pmoles of fluorescein-labeled 21nt DNA oligonucleotide, 50 pmoles of fluorescein-labeled 21nt double-stranded siRNA, or 5 μg of fluorescein-dextran (MW 3000-5000) in 500 μl of OptiMEM. The mixture was aspirated and dispensed through the filter with the 1 ml pipette in triplicates. The mixture was then transferred into 2 ml of regular DMEM medium and the cells allowed to recover for 12 hours at 37° C. After which, the cells were washed 3 times with DMEM and collected for flow cytometry.
(In general: A flow cytometer gives signals particle by particle.)

For Dextran, the “percentage of cells having a higher than background fluorescence” value is “clearly higher”.
